# Results from the supplement of paper PMC13380429.
# How the values were obtained:
# Conditions in all cases: 72 h
# Calu-3 [1] = assay: relative viability EC50 (midpoint between 100% and the lowest measured viability); higher = less toxic
# HepG2 [2] = assay: as above
# Caco-2 [3] = assay: as above
# U2OS [4] = assay: as above
# Vero E6 [5] = assay: as above
# Calu-3 [6] = assay: drug sensitivity score (DSS) for viability; higher = more toxic; extreme values may be limits of the assay
# HepG2 [7] = assay: as above
# Caco-2 [8] = assay: as above
# U2OS [9] = assay: as above
# Vero E6 [10] = assay: as above
# Calu-3 [11] = assay: cell viability relative to DMSO; higher = less toxic
# HepG2 [12] = assay: as above
# Caco-2 [13] = assay: as above
# U2OS [14] = assay: as above
# Vero E6 [15] = assay: as above
SMILES,relative viability EC50 (Calu-3 [1]) [µM],relative viability EC50 (HepG2 [2]) [µM],relative viability EC50 (Caco-2 [3]) [µM],relative viability EC50 (U2OS [4]) [µM],relative viability EC50 (Vero E6 [5]) [µM],drug sensitivity score (Calu-3 [6]),drug sensitivity score (HepG2 [7]),drug sensitivity score (Caco-2 [8]),drug sensitivity score (U2OS [9]),drug sensitivity score (Vero E6 [10]),cell viability (Calu-3 [11]; 1 nM) [%],cell viability (Calu-3 [11]; 10 nM) [%],cell viability (Calu-3 [11]; 100 nM) [%],cell viability (Calu-3 [11]; 1000 nM) [%],cell viability (Calu-3 [11]; 10000 nM) [%],cell viability (HepG2 [12]; 1 nM) [%],cell viability (HepG2 [12]; 10 nM) [%],cell viability (HepG2 [12]; 100 nM) [%],cell viability (HepG2 [12]; 1000 nM) [%],cell viability (HepG2 [12]; 10000 nM) [%],cell viability (Caco-2 [13]; 1 nM) [%],cell viability (Caco-2 [13]; 10 nM) [%],cell viability (Caco-2 [13]; 100 nM) [%],cell viability (Caco-2 [13]; 1000 nM) [%],cell viability (Caco-2 [13]; 10000 nM) [%],cell viability (U2OS [14]; 1 nM) [%],cell viability (U2OS [14]; 10 nM) [%],cell viability (U2OS [14]; 100 nM) [%],cell viability (U2OS [14]; 1000 nM) [%],cell viability (U2OS [14]; 10000 nM) [%],cell viability (Vero E6 [15]; 1 nM) [%],cell viability (Vero E6 [15]; 10 nM) [%],cell viability (Vero E6 [15]; 100 nM) [%],cell viability (Vero E6 [15]; 1000 nM) [%],cell viability (Vero E6 [15]; 10000 nM) [%]
Cc1ncc(COP(=O)([O-])[O-])c(CN(CCN(CC(=O)O)Cc2c(COP(=O)([O-])O)cnc(C)c2O)CC(=O)O)c1O.[Mn].[Na+].[Na+].[Na+] [Mangafodipir (trisodium)],> 10,> 10,> 10,> 10,> 10,0,0,0,0,0,91.5,107,104,87.6,103,110,89.4,105,101,98.4,95.1,99.5,94.5,108,135,95.1,100,94.7,93.4,101,111,99.7,107,97,99.2
O=C1C(O)=C(O)C(=O)C(O)=C1O [tetroquinone],> 10,> 10,> 10,> 10,> 10,0,0,0,0,0,97.3,98.2,98.1,87.1,93.3,97.9,100,101,106,91.7,103,99.6,96.9,104,97.6,99.9,99.5,97.8,99.8,104,98.3,100,97.6,96.7,95.1
CNC(=O)O[C@H]1COc2ccc(N3CCN(C4COC4)CC3)cc2[C@@H]1NC(=O)c1ccc(F)cc1,> 10,> 10,> 10,> 10,> 10,0,0,0,0,0,106,88.4,92.1,95.4,101,94.9,101,94.4,105,91.8,90.5,103,89.9,101,98.5,96.6,101,95.7,104,102,101,98.2,106,104,94.1
Cc1c(C)c2c(c(C)c1O)CCC(C)(C(=O)O)O2 (stereo not given) [trolox],> 10,> 10,> 10,> 10,> 10,0,0,0.8,0,1.3,105,105,98.1,106,104,96.8,90.2,92.6,87.6,98.8,106,103,88.5,93.3,90.9,104,95.6,105,97,103,94.7,105,102,95.9,77.9
CCC(=O)NCC[C@@H]1CCc2ccc3c(c21)CCO3 [ramelteon],> 10,> 10,> 10,> 10,> 10,0,0,0,0,0,106,90.7,100,86.3,98.4,105,112,105,108,89,102,96.8,97.1,101,95.6,99.5,98.4,101,96.1,98.7,112,110,106,100,99.5
Ic1cncc(OC[C@@H]2CCN2)c1,> 10,> 10,> 10,> 10,> 10,0,0,0,0,0,98.4,98.4,102,97,102,94,94,99.4,98,105,102,97.2,94,100,108,92.1,102,96.7,99.5,106,97.4,92.7,96.6,95.3,102
CC1/C=C/C=C/C=C/C=C/C=C/C=C/C=C/C(OC2O[C@H](C)[C@@H](O)[C@H](N)[C@@H]2O)CC(O)C(C(=O)O)C(O)CC(=O)CC(O)CC(O)CC(O)CC(=O)CCCC(=O)CC(=O)OC1C(C)CC(C)C(O)CC(=O)c1ccc(N)cc1 (stereo not given in full) [candicidin],> 10,> 10,> 10,> 10,> 10,0,0,0,0,0.6,101,102,102,104,97.5,109,96.4,103,103,98.6,82,90.8,87.1,92,77.1,105,99.9,101,101,96.8,101,104,96.7,104,77.2
O=C1CC[C@@H](C(=O)N2CSC[C@H]2C(=O)O)N1 [pidotimod],> 10,> 10,> 10,> 10,> 10,0,0,0,0,0,97.4,104,97.3,96,102,98.4,101,101,105,106,102,91.6,106,102,92.7,93.9,93.3,101,99.9,106,97.8,101,94.8,101,107
On1ncc(C2CCNCC2)c1-c1cccc(-c2ccccc2)c1 [PHP-501],> 10,> 10,> 10,> 10,> 10,0,0,0,0,0,106,102,91.1,97.1,107,108,99.6,105,97.4,100,100,97.3,93,102,94.6,95.5,102,98.1,109,106,97.7,92.1,92,89.9,111
COc1cc(OC)c(C(=O)CCCN2CCCC2)c(OC)c1 [buflomedil],> 10,> 10,> 10,> 10,> 10,0,0,0,0,0,87.5,86.3,90.2,88.6,101,90.5,97.2,97.3,94.4,99,101,103,96.2,96,106,104,99.3,102,98.8,108,95.7,99,94.1,97.5,108
CCOc1ccc2ccccc2c1C(=O)N[C@@H]1C(=O)N2[C@@H]1SC(C)(C)[C@@H]2C(=O)O [nafcillin],> 10,> 10,> 10,> 10,> 10,0,0,0,0,0,91.1,107,101,99.5,102,99.5,91.5,96.8,92.4,99.5,99,96.4,99.9,101,105,98.2,99.6,94.5,100,106,103,90.3,94.2,104,95.7
